The record followed here is US20250296971A1, “GASTRIC INHIBITORY PEPTIDE RECEPTOR LIGANDS” (priority 2021, published 2025).

SMILES strings stand for the structures. *1 amine or outer side, *2 acyl side, *3 side chain or, on linkers, in order; H or OH if unused. Where a SMILES comes first, the peptide text is derived from it. Bridges are numbered along the chain shown (N, C = ends). [ ]: non-standard residue; d: D form. The star is where a group is joined. X17 = O=C(CC[C@H](NC(=O)CN1CCN2CCN3CCN(CC1)CC(=O)[O][Lu]([O]C(=O)C2)[O]C(=O)C3)C(=O)*)NC[C@H](O)[C@@H](O)[C@H](O)[C@H](O)CO; X20 = O=C(CC[C@H](NC(=O)CN1CCN2CCN3CCN(CC1)CC(=O)[O][Ga]([O]C(=O)C2)[O]C(=O)C3)C(=O)*)NC[C@H](O)[C@@H](O)[C@H](O)[C@H](O)CO; DOTA(Lu) = O=C1CN2CCN3CCN(CC(=O)*)CCN(CC2)CC(=O)[O][Lu]([O]1)[O]C(=O)C3; X3 = O=C(O)CN1CCN(CC(=O)O)CCN(CC(=O)NCCCOCCOCCOCCCN*)CCN(CC(=O)O)CC1; X27 = O=C1CN2CCN3CCN(CC(=O)*)CCN(CC2)CC(=O)[O][Eu]([O]1)[O]C(=O)C3; NH(1-deoxy-D-glucityl) = OC[C@@H](O)[C@@H](O)[C@H](O)[C@@H](O)CN*; Pro(trans-4-NH2) = O=C([C@@H]1C[C@@H](N[*:3])CN1[*:1])[*:2]; DOTA = O=C(O)CN1CCN(CC(=O)O)CCN(CC(=O)*)CCN(CC(=O)O)CC1; Trp(5-Cl) = N[C@@H](Cc1c[nH]c2ccc(Cl)cc12)C(=O)O; Pyridine(2,6-diCH2) = c1cc(C[*:1])nc(C[*:2])c1; Pro(4R-NH2) = N[C@H]1CN[C@H](C(=O)O)C1; Glutaryl = O=C(CCCC(=O)[*:2])[*:1]; X7 = c1cc(CSCCN[*:2])cc(C[*:1])c1; Hyp = O=C(O)[C@@H]1C[C@@H](O)CN1; X1 = O=C(CN1CCC(N[*:1])CC1)[*:2]; Suc = O=C(CCC(=O)[*:2])[*:1]; Api = NC1(C(=O)O)CCNCC1; Thp = NC1(C(=O)O)CCOCC1

The first assay concerns the target T1, GIPR (CHO-K1-hGIPR cells) (Homo sapiens, UniProt P48546).
T1 construct: host or cells: CHO-K1
T1 sequence (P48546 22-466): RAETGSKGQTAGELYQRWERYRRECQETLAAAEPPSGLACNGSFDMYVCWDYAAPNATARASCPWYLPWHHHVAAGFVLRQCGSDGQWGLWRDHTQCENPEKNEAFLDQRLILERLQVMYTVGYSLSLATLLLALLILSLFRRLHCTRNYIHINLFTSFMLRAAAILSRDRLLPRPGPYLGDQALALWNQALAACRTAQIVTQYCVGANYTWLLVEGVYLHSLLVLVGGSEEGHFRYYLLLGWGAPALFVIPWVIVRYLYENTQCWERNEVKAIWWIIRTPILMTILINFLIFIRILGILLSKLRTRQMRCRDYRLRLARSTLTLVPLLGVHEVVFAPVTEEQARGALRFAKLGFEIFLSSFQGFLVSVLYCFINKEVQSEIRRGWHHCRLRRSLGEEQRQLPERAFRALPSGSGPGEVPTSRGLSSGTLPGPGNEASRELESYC
The experiment in a line: FACS binding assay. The note with it: competition with 20 nM GIP-057, 4° C., 1 hour, read-out: pIC50 Category (converted). The method, boiled down:
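Steps: detach CHO-K1-hGIPR cells (Accutase); wash in PBS/1% FCS; adjust to 500.000 cells per mL; wash ice-cold; incubate APC-streptavidin 1 μg/mL, 30 min on ice; wash twice; acquire on flow cytometer; fit MFI-concentration data with a four-parameter logistic model.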
A general note: Flow cytometry measures light scatter and fluorescence of single cells or particles in a stream.
For the molecule `CC[C@H](C)[C@@H]1NC(=O)[C@H](CC(C)C)NC(=O)C2(CCN(C(=O)CN3CCN(CC(=O)O)CCN(CC(=O)O)CCN(CC(=O)O)CC3)CC2)NC(=O)[C@@H](NC(=O)[C@@H](CC(C)C)NC(=O)[C@H](CCC(=O)O)NC(=O)[C@@H]2CCCN2C(=O)[C@H](Cc2c[nH]c3ccc(Cl)cc23)NC(=O)[C@H](Cc2c[nH]c3ccccc23)NC(=O)[C@H](CC(=O)O)NC(=O)CCC(=O)NCCCOCCOCCOCCCNC(=O)CN2CCN(CC(=O)O)CCN(CC(=O)O)CCN(CC(=O)O)CC2)CSCc2cccc(c2)CSCCNC1=O` [GIP-053, DOTA-Ttds-Asp-Trp-5Clw-Pro-Glu-leu-[Cys(3MeBn)-Apc(DOTA)-Leu-Ile-AET]] ({X3-Suc}-DW[Trp(5-Cl)]PE[dL]C[Api](DOTA)LI; linker 7-C via X7), the IC50 is less than 10 nM.
`CC[C@H](C)[C@@H]1NC(=O)[C@H](CC(C)C)NC(=O)C2(CCOCC2)NC(=O)[C@@H](NC(=O)[C@@H](CC(C)C)NC(=O)[C@H](CCC(=O)O)NC(=O)[C@@H]2C[C@@H](O)CN2C(=O)[C@H](Cc2c[nH]c3ccc(Cl)cc23)NC(=O)[C@H](Cc2c[nH]c3ccccc23)NC(=O)[C@H](CC(=O)O)NC(=O)CCC(=O)NCCCOCCOCCOCCCNC(=O)CN2CCN(CC(=O)O)CCN(CC(=O)O)CCN(CC(=O)O)CC2)CSCc2cccc(n2)CSC[C@@H](C(=O)N[C@@H](CCCCNC(=O)CN2CCN(CC(=O)O)CCN(CC(=O)O)CCN(CC(=O)O)CC2)C(N)=O)NC1=O` [GIP-054, DOTA-Ttds-Asp-Trp-5Clw-Hyp-Glu-leu-[Cys(2Lut)-Thp-Leu-Ile-Cys]-Lys(DOTA)-NH2] ({X3-Suc}-DW[Trp(5-Cl)][Hyp]E[dL]C[Thp]LICK(DOTA)-NH2; linker 7-11 via Pyridine(2,6-diCH2)): the IC50 is less than 10 nM.
For `CC[C@H](C)[C@@H]1NC(=O)[C@H](CC(C)C)NC(=O)C2(CCN(C(=O)CN3CCN(CC(=O)O)CCN(CC(=O)O)CCN(CC(=O)O)CC3)CC2)NC(=O)[C@@H](NC(=O)[C@@H](CC(C)C)NC(=O)[C@H](CCC(=O)O)NC(=O)[C@@H]2C[C@@H](O)CN2C(=O)[C@H](Cc2c[nH]c3ccc(Cl)cc23)NC(=O)[C@H](Cc2c[nH]c3ccccc23)NC(=O)[C@H](CC(=O)O)NC(=O)CCC(=O)NCCCOCCOCCOCCCNC(=O)CN2CCN(CC(=O)O)CCN(CC(=O)O)CCN(CC(=O)O)CC2)CSCc2cccc(n2)CSC[C@@H](C(=O)N[C@@H](CCCCNC(=O)CN2CCN(CC(=O)O)CCN(CC(=O)O)CCN(CC(=O)O)CC2)C(N)=O)NC1=O` [GIP-055, DOTA-Ttds-Asp-Trp-5Clw-Hyp-Glu-leu-[Cys(2Lut)-Apc(DOTA)-Leu-Ile-Cys]-Lys(DOTA)-NH2] ({X3-Suc}-DW[Trp(5-Cl)][Hyp]E[dL]C[Api](DOTA)LICK(DOTA)-NH2; linker 7-11 via Pyridine(2,6-diCH2)), the IC50 is less than 10 nM.
Regarding `CC[C@H](C)[C@@H]1NC(=O)[C@H](CC(C)C)NC(=O)C2(CCN(C(=O)CN3CCN(CC(=O)O)CCN(CC(=O)O)CCN(CC(=O)O)CC3)CC2)NC(=O)[C@@H](NC(=O)[C@@H](CC(C)C)NC(=O)[C@H](CCC(=O)O)NC(=O)[C@@H]2C[C@@H](NC(=O)CN3CCN(CC(=O)O)CCN(CC(=O)O)CCN(CC(=O)O)CC3)CN2C(=O)[C@H](Cc2c[nH]c3ccc(Cl)cc23)NC(=O)[C@H](Cc2c[nH]c3ccccc23)NC(=O)[C@H](CC(=O)O)NC(=O)CCC(=O)NCCCOCCOCCOCCCNC(=O)CN2CCN(CC(=O)O)CCN(CC(=O)O)CCN(CC(=O)O)CC2)CSCc2cccc(n2)CSC[C@@H](C(=O)N[C@@H](CCCCNC(=O)CN2CCN(CC(=O)O)CCN(CC(=O)O)CCN(CC(=O)O)CC2)C(N)=O)NC1=O` [GIP-056, DOTA-Ttds-Asp-Trp-5Clw-Tap(DOTA)-Glu-leu-[Cys(2Lut)-Apc(DOTA)-Leu-Ile-Cys]-Lys(DOTA)-NH2] ({X3-Suc}-DW[Trp(5-Cl)][Pro(trans-4-NH2)](DOTA)E[dL]C[Api](DOTA)LICK(DOTA)-NH2; linker 7-11 via Pyridine(2,6-diCH2)), the IC50 is less than 10 nM.

The assay is the same for the next values; noted with them: pIC50 Category, competition with 20 nM GIP-057, 4° C., 1 hour.
Take `CC[C@H](C)[C@@H]1NC(=O)[C@H](CC(C)C)NC(=O)C2(CCN(C(=O)[C@H](CCC(=O)NC[C@H](O)[C@@H](O)[C@H](O)[C@H](O)CO)NC(=O)CN3CCN4CCN5CCN(CC3)CC(=O)[O][Ga]([O]C(=O)C4)[O]C(=O)C5)CC2)NC(=O)[C@@H](NC(=O)[C@@H](CC(C)C)NC(=O)[C@H](CCC(=O)O)NC(=O)[C@@H]2C[C@@H](N)CN2C(=O)[C@H](Cc2c[nH]c3ccc(Cl)cc23)NC(=O)[C@H](Cc2c[nH]c3ccccc23)NC(=O)[C@H](CC(=O)O)NC(=O)CN2CCC(NC(=O)CCCC(=O)NC[C@H](O)[C@@H](O)[C@H](O)[C@H](O)CO)CC2)CSCc2cccc(n2)CSC[C@@H](C(=O)NC2CCN(CC(=O)N[C@H](CCC(=O)NC[C@H](O)[C@@H](O)[C@H](O)[C@H](O)CO)C(N)=O)CC2)NC1=O` [GIP-059, AGLU-Glutar-APAc-Asp-Trp-5Clw-Tap-Glu-leu-[Cys(2Lut)-Apc(GaDOTA-glu(AGLU))-Leu-Ile-Cys]-APAc-glu(AGLU)-NH2] ({NH(1-deoxy-D-glucityl)-Glutaryl}-[X1]DW[Trp(5-Cl)][Pro(4R-NH2)]E[dL]C[Api](X20)LIC[X1][dE](NH(1-deoxy-D-glucityl))-NH2; linker 8-12 via Pyridine(2,6-diCH2)): the IC50 was less than 10 nM.
The molecule `CC[C@H](C)[C@@H]1NC(=O)[C@H](CC(C)C)NC(=O)C2(CCN(C(=O)[C@H](CCC(=O)NC[C@H](O)[C@@H](O)[C@H](O)[C@H](O)CO)NC(=O)CN3CCN4CCN5CCN(CC3)CC(=O)[O][Lu]([O]C(=O)C4)[O]C(=O)C5)CC2)NC(=O)[C@@H](NC(=O)[C@@H](CC(C)C)NC(=O)[C@H](CCC(=O)O)NC(=O)[C@@H]2C[C@@H](N)CN2C(=O)[C@H](Cc2c[nH]c3ccc(Cl)cc23)NC(=O)[C@H](Cc2c[nH]c3ccccc23)NC(=O)[C@H](CC(=O)O)NC(=O)CN2CCC(NC(=O)CCCC(=O)NC[C@H](O)[C@@H](O)[C@H](O)[C@H](O)CO)CC2)CSCc2cccc(n2)CSC[C@@H](C(=O)NC2CCN(CC(=O)N[C@H](CCC(=O)NC[C@H](O)[C@@H](O)[C@H](O)[C@H](O)CO)C(N)=O)CC2)NC1=O` [GIP-061, AGLU-Glutar-APAc-Asp-Trp-5Clw-Tap-Glu-leu-[Cys(2Lut)-Apc(LuDOTA-glu(AGLU))-Leu-Ile-Cys]-APAc-glu(AGLU)-NH2] ({NH(1-deoxy-D-glucityl)-Glutaryl}-[X1]DW[Trp(5-Cl)][Pro(4R-NH2)]E[dL]C[Api](X17)LIC[X1][dE](NH(1-deoxy-D-glucityl))-NH2; linker 8-12 via Pyridine(2,6-diCH2)) gave an IC50 of less than 10 nM.
The molecule `CC[C@H](C)[C@@H]1NC(=O)[C@H](CC(C)C)NC(=O)C2(CCOCC2)NC(=O)[C@@H](NC(=O)[C@@H](CC(C)C)NC(=O)[C@H](CCC(=O)O)NC(=O)[C@@H]2C[C@@H](O)CN2C(=O)[C@H](Cc2c[nH]c3ccc(Cl)cc23)NC(=O)[C@H](Cc2c[nH]c3ccccc23)NC(=O)[C@H](CC(=O)O)NC(=O)CN2CCC(NC(=O)[C@@H](CCC(=O)NC[C@H](O)[C@@H](O)[C@H](O)[C@H](O)CO)NC(=O)CN3CCN4CCN5CCN(CC3)CC(=O)[O][Lu]([O]C(=O)C4)[O]C(=O)C5)CC2)CSCc2cccc(n2)CSC[C@@H](C(=O)NC2CCN(CC(=O)N[C@H](CCC(=O)NC[C@H](O)[C@@H](O)[C@H](O)[C@H](O)CO)C(N)=O)CC2)NC1=O` [GIP-062, LuDOTA-glu(AGLU)-APAc-Asp-Trp-5Clw-Hyp-Glu-leu-[Cys(2Lut)-Thp-Leu-Ile-Cys]-APAc-glu(AGLU)-NH2] ({DOTA(Lu)}-[dE](NH(1-deoxy-D-glucityl))[X1]DW[Trp(5-Cl)][Hyp]E[dL]C[Thp]LIC[X1][dE](NH(1-deoxy-D-glucityl))-NH2; linker 9-13 via Pyridine(2,6-diCH2)) showed an IC50 of less than 10 nM.
With `CC[C@H](C)[C@@H]1NC(=O)[C@H](CC(C)C)NC(=O)C2(CCOCC2)NC(=O)[C@@H](NC(=O)[C@@H](CC(C)C)NC(=O)[C@H](CCC(=O)O)NC(=O)[C@@H]2C[C@@H](O)CN2C(=O)[C@H](Cc2c[nH]c3ccc(Cl)cc23)NC(=O)[C@H](Cc2c[nH]c3ccccc23)NC(=O)[C@H](CC(=O)O)NC(=O)CN2CCC(NC(=O)[C@@H](CCC(=O)NC[C@H](O)[C@@H](O)[C@H](O)[C@H](O)CO)NC(=O)CN3CCN4CCN5CCN(CC3)CC(=O)[O][Eu]([O]C(=O)C4)[O]C(=O)C5)CC2)CSCc2cccc(n2)CSC[C@@H](C(=O)NC2CCN(CC(=O)N[C@H](CCC(=O)NC[C@H](O)[C@@H](O)[C@H](O)[C@H](O)CO)C(N)=O)CC2)NC1=O` [GIP-064, Europium-Complex of DOTA-glu(AGLU)-APAc-Asp-Trp-5Clw-Hyp-Glu-leu-[Cys(2Lut)-Thp-Leu-Ile-Cys]-APAc-glu(AGLU)-NH2] (X27-[dE](NH(1-deoxy-D-glucityl))[X1]DW[Trp(5-Cl)][Hyp]E[dL]C[Thp]LIC[X1][dE](NH(1-deoxy-D-glucityl))-NH2; linker 9-13 via Pyridine(2,6-diCH2)), the IC50 was less than 10 nM.
